Reference: US6403125B1, “Utilization of an extract of a plant of the Cecropia genus” (Cognis France (Societe Anonyme), priority 1998, dated 2002)

Tested on: human adipocytes
Experiment: Lipolysis activation on human adipocytes in vitro (glycerin release)
Type: cell-based
Conditions: 90 minutes at 37° C.
Description: I. Evidence of the Lipolysis Activation Effect on Human Adipocytes in “in vitro” Survival The test used to emphasise the lipolysis activation of human adipocytes in the presence of Cecropia extracts, which are the subject of the present invention, is described below. Lipolysis is removal of triglycerides (or TG) stored in the adipocytes by a hormone-sensitive enzyme, triglyceride lipase (or TGL) which splits the TG into free fatty acids and glycerin which are removed in the blood circulation. The fatty acids can then be absorbed by the muscle cells to produce energy. 1) Principle of the in vitro Test Activation of lipolysis is evaluated by spectrophotometric metering of the rate of glycerin salted out by adipocytes, incubated “in vitro” with the substance to be tested present. The adipocytes are isolated by enzymatic digestion of subcutaneous human tissue by the so-called Rodbell method (see M. Rodbell: “Metabolism of isolated fat cells”. The journal of biological chemistry, Vol. 239, No. 2, pages 375 to 380, 1964). […] 3) Quantisation of the Lipolysis The rate of salted-out glycerin is quantified by spectrophotometry in the medium of the material which floats on the surface by the method described by C. […] The results are expressed as mean values of the activation percentage relative to a proof mass batch (without Cecropia extract).

SMILES | % activation of the lipolysis relative to the proof mass without extract (mean) (0.1 μM) | % activation of the lipolysis relative to the proof mass without extract (mean) (1 mM)
CC(C)NCC(O)c1ccc(O)c(O)c1 (centres unmarked) [Isoprenaline, isoprenaline] | + 45% | –
Cn1c(=O)c2[nH]cnc2n(C)c1=O [Theophylline, theophylline] | – | + 70%
